Experimental data published in PubChem BioAssay (NCI).
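A five-concentration, 48-hour dose response in 96-well plates underlies each endpoint, interpolated linearly between surrounding concentrations. TGI is the concentration that stops growth completely.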

What was measured:
Assay in all cases: NCI tumour cell line growth inhibition, 48 h
[1] = test system: EKVX NSCLC
[2] = test system: HCT-15 colon
[3] = test system: HT29 colon
[4] = test system: IGROV1 ovarian
[5] = test system: OVCAR-3 ovarian
[6] = test system: OVCAR-5 ovarian
[7] = test system: OVCAR-8 ovarian
[8] = test system: RPMI-8226 leukemia
[9] = test system: RXF 393 renal
[10] = test system: SF-268 CNS
[11] = test system: SF-295 CNS
[12] = test system: SF-539 CNS
[13] = test system: SK-MEL-28 melanoma
[14] = test system: SN12C renal
[15] = test system: SNB-75 CNS
[16] = test system: SW-620 colon
[17] = test system: TK-10 renal
[18] = test system: CCRF-CEM leukemia
[19] = test system: SK-MEL-2 melanoma

SMILES | TGI [1] [µM] | TGI [2] [µM] | TGI [3] [µM] | TGI [4] [µM] | TGI [5] [µM] | TGI [6] [µM] | TGI [7] [µM] | TGI [8] [µM] | TGI [9] [µM] | TGI [10] [µM] | TGI [11] [µM] | TGI [12] [µM] | TGI [13] [µM] | TGI [14] [µM] | TGI [15] [µM] | TGI [16] [µM] | TGI [17] [µM] | TGI [18] [µM] | TGI [19] [µM]
O=C(/C=C/c1ccc(Cl)c(Cl)c1)C1CCC(Cl)CC1 (stereo not drawn) | 32 | 35.1 | 31.7 | 33.9 | 28.4 | 43.3 | 38.5 | 21 | 37.9 | 37.1 | 35.8 | 33.6 | 31.4 | 32.7 | 44.3 | 31.7 | 90.3 |  | 
COc1cc(C2C(Cl)C(=O)N2NC(=O)Cc2ccccc2)ccc1O (stereo not drawn) | > 100 | > 100 | > 100 | > 100 | > 100 | > 100 | > 100 | > 100 | > 100 | > 100 | > 100 |  | > 100 | > 100 | > 100 | > 100 | > 100 | > 100 | > 100
CN(NC(=O)c1cccs1)C1=NCCN1 | > 100 | > 100 | > 100 | > 100 | > 100 | > 100 | > 100 | > 100 | > 100 | > 100 | > 100 | > 100 | > 100 |  | > 100 | > 100 | > 100 | > 100 | > 100
CN(CC#N)C(=O)Cc1ccc([N+](=O)[O-])cc1 | > 10 | > 10 | > 10 | > 10 | > 10 | > 10 | > 10 | > 10 | > 10 | > 10 | > 10 | > 10 | > 10 | > 10 |  | > 10 | > 10 | > 10 | > 10
CCOC(=O)CC(N1CC1)N1CC1 | > 10 | > 10 | > 10 | > 10 | > 10 | > 10 |  | > 10 | > 10 | > 10 | > 10 | > 10 | > 10 | > 10 | > 10 | > 10 | > 10 | > 10 | > 10
COCC12CC(CC1=O)C1C2ON2c3ccccc3C(=O)C12c1ccccc1 (stereo not drawn) | > 100 | > 100 | > 100 | > 100 |  |  | > 100 | > 100 | > 100 | > 100 | > 100 | > 100 | > 100 | > 100 | > 100 | > 100 |  | > 100 | 
CCCOCN1COCN=C1NC#N | > 100 | 32.6 | > 100 | > 100 | > 100 | > 100 | > 100 | > 100 | 29.8 | > 100 | > 100 | > 100 | > 100 | > 100 | > 100 | 32.3 | > 100 |  | > 100
CC1OC(OC2C(O[C@@H]3C[C@@H]4CC[C@@H]5[C@H](CC[C@]6(C)[C@@H]7[C@H](C[C@@H]56)O[C@]5(CC[C@@H](C)CO5)[C@H]7C)[C@@]4(C)C[C@H]3O)OC(CO)C(OC3OC(CO)C(O)C(O)C3O)C2O)C(O)C(O)C1O (stereo partly drawn) | 2.91 | 4.66 | 2.88 | 2.39 | 3.04 | 3.12 | 2.9 | 11.3 | 3.53 | 3.51 | 2.92 | 3.16 | 3.13 | 3.05 | 5.76 | 3.04 |  | 3.72 | 3.28
Cn1c(N)c(-c2c3ccccc3nc3ccccc23)c(=O)n(C)c1=O | > 100 | > 100 | > 100 | > 100 | > 100 | > 100 | > 100 | > 100 | > 100 | > 100 | > 100 | > 100 | > 100 | > 100 |  | > 100 | > 100 | > 100 | > 100
CC1CC(NN(C)C)C2(C(N)=O)C(N)=NC(=O)C12C#N (stereo not drawn) | > 100 | > 100 | > 100 | > 100 |  | > 100 | > 100 | > 100 | > 100 | > 100 | > 100 | > 100 | > 100 | > 100 | > 100 | > 100 | > 100 | > 100 | > 100
CCOC(=O)C1CC/C(=C(/C#N)C(=O)OC)N1 (stereo not drawn) | > 100 | > 100 |  | > 100 | > 100 |  | > 100 | > 100 | > 100 | > 100 | > 100 | > 100 | > 100 | > 100 | > 100 | > 100 | > 100 | > 100 | > 100
COc1ccc(/C(Cl)=C/c2ccc(Cl)c(Cl)c2)cc1 | 61.8 | 97.3 | 47.5 | > 100 |  |  | > 100 | 53.9 | 33.6 | > 100 | 74.9 | > 100 | > 100 | > 100 | 99.7 | > 100 |  | 47.8 | 
COC(=O)/C(=C\C(=O)c1ccc(Br)cc1)NN=C(c1ccccc1)c1ccccc1 | > 10 | > 10 | > 10 | > 10 |  |  | > 10 | > 10 | > 10 | > 10 | > 10 |  | > 10 | > 10 | > 10 | > 10 | > 10 | > 10 | 
